# Assay results from US20260235623A1, “EFFECT INDUCED BY A SODIUM-GLUCOSE COTRANSPORTER INHIBITOR (SGLTi) IN A SUBJECT SUFFERING FROM A CARDIOVASCULAR DISEASE” (Roche Diagnostics Operations, Inc., priority 2023, published 2026).
# Where two headings read alike, the source gives them in different places.
# Columns and labels:
# FABP3 = conditions: for amount of FABP3 higher compared to baseline: 3 months (V2)
# Source text: (§1) A total of 100 patients with stable chronic HFrEF participating in a prospective registry at the heart failure outpatient clinic at the Medical University of Vienna, which has been imputed with all clinically relevant data, are included in the present study. The inclusion criteria of the registry are documented chronic HFrEF, an age of at least 18 years and stable heart failure related medical therapy in the last 3 months. Inclusion criteria for this study is the participation in the registry, and the absence of any exclusion criteria avoiding the prescription of SGLT-2 inhibitor (Dapagliflozin). Visits at the outpatient clinic are conducted at baseline (visit 0), at week 4 after SGLT-2 inhibitor therapy initiation (visit 1), after 3 month (visit 2), after 6 months (visit 3), and every 6 months thereafter.
# (§2) Blood and urine samples are drawn from a peripheral vein and collected at baseline prior to administration of the SGLT-2 inhibitor and repeated at every regularly scheduled study-visit. Samples are used for (1.) routine laboratory analysis and (2.) biobank storage.
# (§3) Blood for the biobank is immediately centrifuged and plasma samples are stored at-80° C. for future analysis. The plasma samples and urine samples are stored in the central “biobank” facility of the Department of Laboratory Medicine at the Medical University of Vienna.
# (§4) FABP3 and additional cardiac biomarkers N-terminal B-type natriuretic peptide (NT-proBNP) and GDF-15 are measured in plasma using the Elecsys Systems (Roche Diagnostics, Mannheim, Germany).
# NT-proBNP = conditions: for median NT-proBNP concentration: baseline median 1396.30; for change of amount of NT-proBNP before and after initiation: before and after SGLT2i initiation
# Source text: as §1, §2, §3, §4
# GDF-15 = conditions: baseline median 2439.34
# Source text: as §1, §2, §3, §4
# FABP3/GDF-15 = conditions: for median FABP3/GDF-15 ratio: FABP3 in ng/ml, GDF-15 in pg/mL, baseline median ratio 0.017
# Source text: as §1, §2, §3, §4
# FABP3/NT-proBNP = conditions: for median FABP3/NT-proBNP ratio: FABP3 in ng/ml, NT-proBNP in pg/mL, baseline median ratio 0.026
# Source text: as §1, §2, §3, §4
# [1] = after 6 months (V3), vs. baseline
# [2] = V1: week 4 after SGLT2i therapy initiation
smiles,measurement,setting,value
"CCOc1ccc(Cc2cc([C@@H]3O[C@H](CO)[C@@H](O)[C@H](O)[C@H]3O)ccc2Cl)cc1 [SGLT2i, Dapagliflozin]",relative increase of FABP3 concentration alone,FABP3; [1],19%
same,change in plasma concentration of FABP3 after therapy initiation,FABP3; chronic HFrEF patients,increase in plasma concentration of FABP3
same,median FABP3 plasma concentration,"FABP3; chronic HFrEF patients, V1: week 4 after SGLT2i therapy initiation, baseline median 37.82",40.86 ng/mL
same,median FABP3 plasma concentration,"FABP3; chronic HFrEF patients, V2: 3 months, baseline median 37.82",45.14 ng/mL
same,median FABP3 plasma concentration,"FABP3; chronic HFrEF patients, V3: 6 months, baseline median 37.82",44.36 ng/mL
same,FABP3 plasma concentration,"FABP3; chronic HFrEF patients, V4: 12 months, baseline median 37.82",44.47 ng/mL
same,amount of FABP3 higher compared to baseline,FABP3; patient subgroup with high baseline FABP3 (above 37.8 ng/ml),about 14%
same,amount of FABP3 higher compared to baseline,FABP3; patient subgroup with low baseline FABP3 (below 37.8 ng/ml),about 27%
same,median FABP3 concentration,"FABP3; patients with high baseline FABP3 (above 37.8 ng/ml), V1: week 4, baseline median 47.97",53.56 ng/mL
same,median FABP3 concentration,"FABP3; patients with high baseline FABP3 (above 37.8 ng/ml), V2: 3 months, baseline median 47.97",54.73 ng/mL
same,median FABP3 concentration,"FABP3; patients with high baseline FABP3 (above 37.8 ng/ml), V3: 6 months, baseline median 47.97",54.51 ng/mL
same,FABP3 concentration,"FABP3; patients with high baseline FABP3 (above 37.8 ng/ml), V4: 12 months, baseline median 47.97",53.23 ng/mL
same,median FABP3 concentration,"FABP3; patients with low baseline FABP3 (below 37.8 ng/mL), V1: week 4, baseline median 29.05",31.41 ng/mL
same,median FABP3 concentration,"FABP3; patients with low baseline FABP3 (below 37.8 ng/mL), V2: 3 months, baseline median 29.05",38.86 ng/mL
same,median FABP3 concentration,"FABP3; patients with low baseline FABP3 (below 37.8 ng/mL), V3: 6 months, baseline median 29.05",36.41 ng/mL
same,FABP3 concentration,"FABP3; patients with low baseline FABP3 (below 37.8 ng/mL), V4: 12 months, baseline median 29.05",36.76 ng/mL
same,time for which the FABP3 increase is apparent,FABP3; under SGLTi treatment,≥ 12 months
same,median NT-proBNP concentration,NT-proBNP; [2],1115.68 pg/mL
same,median NT-proBNP concentration,NT-proBNP; V2: 3 months,1191.95 pg/mL
same,median NT-proBNP concentration,NT-proBNP; V3: 6 months,889.21 pg/mL
same,median NT-proBNP concentration,NT-proBNP; V4: 12 months,1172.84 pg/mL
same,change of amount of NT-proBNP before and after initiation,NT-proBNP,does not correlate
same,change of amount of NT-proBNP before and after initiation,NT-proBNP; listed as SGLTi,does not significantly change
same,median GDF-15 concentration,GDF-15; [2],2657.16 pg/mL
same,median GDF-15 concentration,GDF-15; V2: 3 months,3036.18 pg/mL
same,median GDF-15 concentration,GDF-15; V3: 6 months,2414.01 pg/mL
same,median GDF-15 concentration,GDF-15; V4: 12 months,2039.85 pg/mL
same,median FABP3/GDF-15 ratio,FABP3/GDF-15; V1: week 4,0.016
same,median FABP3/GDF-15 ratio,FABP3/GDF-15; V2: 3 months,0.016
same,median FABP3/GDF-15 ratio,FABP3/GDF-15; V3: 6 months,0.016
same,median FABP3/GDF-15 ratio,FABP3/GDF-15; V4: 12 months,0.019
same,change of FABP3/GDF-15 ratio after initiation,FABP3/GDF-15; after SGLT2i initiation,remains stable
same,peak of relative increase of FABP3/GDF-15 ratio,"FABP3/GDF-15; at 12 months (V4), vs. baseline",12%
same,median FABP3/NT-proBNP ratio,FABP3/NT-proBNP; V1: week 4,0.032
same,median FABP3/NT-proBNP ratio,FABP3/NT-proBNP; V2: 3 months,0.039
same,median FABP3/NT-proBNP ratio,FABP3/NT-proBNP; V3: 6 months,0.046
same,median FABP3/NT-proBNP ratio,FABP3/NT-proBNP; V4: 12 months,0.033
same,peak of relative increase of FABP3/NT-proBNP ratio,FABP3/NT-proBNP; [1],77%
same,change of FABP3/NT-proBNP ratio after initiation,FABP3/NT-proBNP; over time after SGLT2i initiation,increases over time
